From patent US20130196362A1, “DIARYLAMINE-BASED FLUOROGENIC PROBES FOR DETECTION OF PEROXYNITRITE” (THE UNIVERSITY OF HONG KONG, priority 2012, published 2013)

Test system: RAW264.7 macrophage cells
Experiment: Fluorescent microscopy of RAW264.7 macrophages stimulated with LPS and IFN-γ
Format: cell-based, Mouse
Conditions: 500 nM
Description: The macrophage cells were incubated with Compound 27 at a concentration of 500 nM. Upper: Control; Lower: The macrophages were stimulated with LPS and IFN-γ for 14 hr. Left: Nuclear staining with Hoechst; Middle: Compound 27; Right: Merged.
Human SH-SY5Y neuroblastoma cells (ATCC, USA) were maintained in high glucose Dulbecco's Modified Eagle Medium (DMEM, Hyclone) supplemented with 10% fetal bovine serum (FBS, Gibco), 1% penicillin/streptomycin (PS, Gibco) and 1% L-glutamine (Gibco). Mouse C17.2 neural progenitor cells (ATCC, USA) were maintained in high glucose Dulbecco's Modified Eagle Medium supplemented with 8% fetal bovine serum (Gibco), 4% horse serum (Gibco), 1% penicillin/streptomycin and 1% L-glutamine. Mouse RAW264.7 macrophage cells (ATCC, USA) were maintained in high glucose Dulbecco's Modified Eagle Medium (DMEM, Hyclone) supplemented with 10% fetal bovine serum (Gibco), 1% penicillin/streptomycin (Gibco) and 1% L-glutamine.
Generally, cells were grown to confluence prior to experiment. Cells were incubated with Compounds) 6, 7, 8, 14, 20, 21, 24, 27, and 32, respectively for 1 hr, and then washed three times with PBS buffer.

## CC[N+]1=c2cc3c(cc2C(C)CC1(C)C)=C(c1ccc(C(=O)N(CC(=O)OC)CC(=O)OC)cc1C)c1ccc(N(C)c2ccc(O)cc2)cc1[Si]3(C)C (centres unmarked) [Compound 27]
LPS and IFN-γ for 14 hr
  fluorescence after treatment with stimulants: strongly induced
control
  fluorescence in the absence of stimulants: very weak fluorescence
